These results are taken from patent US9518271B2, “Lentiviral-based vector and its use in directed evolution of genomic regions, genes and polynucleotides” (CENTRE NATIONAL DE LA RECHERCHE SCIENTIFIQUE, priority 2009, dated 2016).

Experiment [1] deals with Jurkat SLP-76−/−plL2-luc cell clone. Briefly: Luciferase induction in Jurkat SLP-76-/- pIL2-luc cell clone. The format is cell-based. Conditions: IL2 promoter-driven luciferase; PMA and Calcimycine applied together. An excerpt:
(§1) Concerning the screening based on the two luciferase-based readouts (either the one based on transcription driven by the NFAT or by IL2), the inventors have constructed two cell lines which as such are also part of the present invention: • the Jurkat SLP-76−/−plL2-luc cell clone, deposited at the CNCM (Paris, France) under accession number I-4236 on Oct. 30, 2009, in the name of Institut Pasteur, 25-28 rue du Docteur Roux, 75724 Paris Cedex 15, and resulting from the introduction in Jurkat J14 cells (SLP-76−/−) of the firefly luciferase gene under the control of two copies of the IL2 promoter; and • the Jurkat SLP-76−/−NFAT-luc cell clone, deposited at the CNCM under accession number I-4237 on Oct. 30, 2009, in the name of Institut Pasteur, 25-28 rue du Docteur Roux, 75724 Paris Cedex 15, and resulting from the introduction in Jurkat J14 cells (SLP-76−/−) of the firefly luciferase gene preceded by three copies of the NFAT binding site.

The test system of experiment [2] is Jurkat SLP-76−/−NFAT-luc cell clone. Briefly: Luciferase induction in Jurkat SLP-76-/- NFAT-luc cell clone. The class given is cell-based. Conditions: NFAT binding site-driven luciferase; PMA and Calcimycine applied together.
Excerpt: as §1

In experiment [3] the test system is HEK 293T cells. Kind of experiment: Cell death (MTT assay) of HEK 293T clones carrying dCK variants exposed to AraC. The class given is cell-based, human. To be noted: increasing concentrations of AraC, 72 h, FIG. 8. An excerpt: FIG. 8 discloses the cell survival with regard to increasing concentrations of AraC (μM) in presence of the wild type dCK gene (white triangles and solid thick curve) or variants containing point mutations or deletion in the dCK gene (other curves). Each plot represents the average of three independent experiments.
(§2) 80 individual cellular clones at the F17 generation, obtained after transduction of 293T cells at a low multiplicity of infection (and therefore carrying a single variant of the target polynucleotide) have been isolated. The 80 clones have been tested for the kinetic of cell death induced after their exposal to different concentrations of the two anti-cancer drugs, AraC and Gemcitabine, which are cytidine analogues (the natural substrate of dCK) as follows.
Individual clones have been isolated after transduction of HEK 293T cells at low multiplicity of transduction (m.o.i.) and seeding of the transduced cells at limiting dilutions in 96-well plates. […] Seventy-two hours after exposure, cell death has been evaluated for each independent clone and for each drug treatment condition using the MTT assay (Promega) that is a colorimetric test used to quantify cell viability and proliferation. A relative rate of cell death has been calculated for each clone, with respect to the values observed in the plate where no drug was included. […]

Experiment [4] has as its system HEK 293T cells. Kind of experiment: Cell death (MTT assay) of HEK 293T clones carrying dCK variants exposed to Gemcitabine. To be noted: 10 nM Gemcitabine, average of 4 independent experiments. The format is cell-based, human.
Excerpt: as §2
Individual clones have been isolated after transduction of HEK 293T cells at low multiplicity of transduction (m.o.i.) and seeding of the transduced cells at limiting dilutions in 96-well plates. Individual cell clones growing in the presence of puromycin have then been expanded and seeded in parallel in several replicated 96-well plates. All these plates, with the exception of one to use as control, have been exposed to the anticancer drug at different concentrations, while the control plate has been maintained in the absence of drug. Seventy-two hours after exposure, cell death has been evaluated for each independent clone and for each drug treatment condition using the MTT assay (Promega) that is a colorimetric test used to quantify cell viability and proliferation. A relative rate of cell death has been calculated for each clone, with respect to the values observed in the plate where no drug was included. […]

Experiment [5] has as its system Messa 10K cells. Briefly: Sensitivity to Gemcitabine of Messa 10K cells transduced with dCK variants. The format is cell-based, human. As for the experimental part: FIG. 10 discloses (A) the cell survival with regard to increasing concentrations of Gemcitabine (nM) in untransduced Messa 10K cells (grey solid line), in presence of the wild type dCK gene (large dashed lines) or in presence of dCK G12 variants gene (black solid lines); (B) the survival of Messa 10K cells in presence of 75 nM Gemcitabine in untransduced Messa 10K cells (Messa10K), in Messa 10K cells transduced with a viral vector carrying a wild type dCK gene (M-dCK), in Messa 10K cells transduced with a viral vector carrying the E8 variant dCK gene with mutations G>A 739 et C>A 745 (M-E8) or in Messa 10K cells transduced with a viral vector carrying the G12 variant dCK gene (M-G12), and (C) Western Blot to detect dCK expression on cell lysates, using a polyclonal rabbit antibody; M: untransduced Messa10K cells; M-dCK: Messa10K transduced with a vector carrying the wt dCK gene (4 independent populations); M-G12: Messa10K transduced with a vector carrying the G12 mutant (4 independent populations).
FIG. 11 discloses the cell survival with regard to increasing concentrations of Gemcitabine (nM) in untransduced Messa10K cells (small dashed line), in Messa10K cells transduced with a vector carrying the wt dCK gene (large dashed line; n=5), in Messa10K cells transduced with a vector carrying the sequence of the dCK G12 variant re-inserted in a wild-type backbone (light grey line; n=5), in Messa10K cells transduced with a vector rescued from the 293T-G12-F16 cell line (dark grey line; n=5) and in Messa10K cells transduced with a vector rescued from the 293T-G12-F17 cell line (solid black line; n=5). […]
For these reasons, a strategy for the screening on Messa 10K cells (illustrated in FIG. 9) was set up, aiming at averaging the epigenetic effects possibly influencing the final phenotype by analysing a population of target cells containing the same dCK variant inserted in different sites of the genome. […] The totality of the clones of the same variant were cultivated and analysed for the sensitivity to Gemcitabine in the assay previously described. […]

For experiment [6], the system named is Messa 10K cells. To be noted: Messa 10K cells lacking functional dCK; read-out: Gemcitabine 1050; cited from earlier work.

pIC50: −log10 of the molar value.

With `CNc1ccc2oc(C[C@H]3O[C@@]4(CC[C@H]3C)O[C@H]([C@H](C)C(=O)c3ccc[nH]3)[C@H](C)C[C@H]4C)nc2c1C(=O)O` [Calcimycine], the induction of luciferase result in experiment [1] and in experiment [2] was “strong induction” in each case.
Consider “G7: dCK variant with a G to A transition at position 521, leading to the G174E variation at the amino acid level [Clone G7]”, for which, in the experiment on HEK 293T cells [3], the “cell death induced by AraC compared with wt dCK” value was “clear tendency to induce cell death”.
For the compound “G12: dCK variant with a G to A transition at position 511 (E171K at the amino acid level) [Clone G12]”, in the experiment with HEK 293T cells [4], the “ratio of cell survival in G12 cells/dCK cells” value was 0.50±0.11. In addition, in the experiment on Messa 10K cells [5] (75 nM Gemcitabine, transduced Messa 10K cells, FIG. 10B), the cell death ratio is listed as 90%. For the same compound, in the experiment with Messa 10K cells [5] (G12 subcloned from cell line F16, Messa 10K cells, FIG. 11), the “sensitivity to Gemcitabine conferred after re-insertion in a wild type lentiviral vector” value is on record as “maintains the ability to confer increased sensitivity to Gemcitabine”. The “cell death by Gemcitabine compared with wild type dCK” value with Messa 10K cells [5] (transduced Messa 10K cells, four rounds of screening, FIG. 10A/10B) is given as “cell death ratio higher than the one induced from a wild type dCK”.
On to `CCCCCCCCCCCCCC(=O)O[C@@H]1[C@@H](C)[C@@]2(O)[C@@H](C=C(CO)C[C@]3(O)C(=O)C(C)=C[C@@H]23)[C@@H]2C(C)(C)[C@]12OC(C)=O` [Phorbol Myristate Acetate], for which the induction of luciferase result in experiment [1] and in experiment [2] was “strong induction” throughout.
As to `Nc1ccn([C@@H]2O[C@H](CO)[C@@H](O)C2(F)F)c(=O)n1` [Gemcitabine], the pIC50 in the experiment with Messa 10K cells [6] is 4.96.
